{"source": "patent US8410175B2", "about": "“Anticancer effect enhancer” (Nippon Kayaku Kabushiki Kaisha, priority 2004, dated 2013)", "key": {"[1]": {"test_system": "Colon 26 cells, murine colon cancer cells", "experiment": "Murine colon cancer model, tumor volume growth", "format": "in vivo", "parameters": "dose or concentration left out as unconfirmed", "settings": "colon 26 s.c. in BALB/c mice; two weeks", "method": "Tumor volume was calculated as 0.5×{tumor length (mm)}×{tumor width (mm)}^2. The P value was calculated by student t-test.\n(§1) Colon 26 cells, murine colon cancer cells, were obtained from the Tohoku University Cell Resource Center for Biomedical Research and were incubated with RPMI 1640 plus 10% fetal bovine serum until cell proliferation was sufficient to perform the experiments. The colon 26 cells were adjusted to concentrations of 2×10^5 cells/100 μl with phosphate buffer saline (PBS), and were inoculated Six-week-old female BALB/c mice purchased from Charles River Japan, Inc. (Tokyo, Japan) and Clea Japan, Inc. (Tokyo, Japan) subcutanously (2×10^5 cells/100 μl/mouse) at the right hypochondrium. Mice were maintained under specific-pathogen-free conditions, and provided with sterile food and water. When transplanted tumors grew to approximately 100 mm^3 in tumor volume, animals were equally divided into four groups (Control group, n=6; C, NO donor group, n=6; N, Chemotherapy group, n=6; CTX, and NO plus chemotherapy group, n=6; N+CTX). Tumor volume was calculated as 0.5×{tumor length (mm)}×{tumor width (mm)}^2. […]"}, "[2]": {"test_system": "Murine Lewis lung carcinoma (LLC) cells", "experiment": "Murine lung cancer model, tumor volume growth", "format": "in vivo", "parameters": "dose or concentration left out as unconfirmed", "settings": "LLC s.c. in C57BL6 mice; two weeks", "method": "Tumor volume was calculated as 0.5×{tumor length (mm)}[…]{tumor width (mm)}^2. The […] was calculated by student t-test.\nas §1, with “Murine Lewis lung carcinoma (LLC)” for “Colon 26”, “lung adenocarcinoma” for “murine colon cancer”, “DMEM” for “RPMI 1640”, “LLC” for “colon 26”, “male C57BL6” for “female BALB/c”, “subcutaneously” for “subcutanously”"}}}
{"smiles": "O=[N+]([O-])OCC(CO[N+](=O)[O-])O[N+](=O)[O-]", "note": "[NO donor, nitroglycerin]", "values": [{"measurement": "murine tumor volume", "setting": "[1]", "result": "rapid tumor growth"}, {"measurement": "murine tumor volume", "setting": "[2]", "result": "rapid tumor growth"}]}
